Data taken from patent US9199917B2, “N-substituted benzenepropanamide or benzenepropenamide derivatives for use in the treatment of pain and inflammation” (Novaremed Limited, priority 2008, dated 2015).

System: Balb/c mice
Assay: Hot-Plate Test of Balb/c mice vs. imipramine, i.p. & p.o. (Example 2)
Type: in vivo
Settings: 5 mg/kg i.p. at t=0, group Average
Protocol: 14-week old male Balb/c mice (non-naive) were divided into four groups of seven mice per group and treated at t=0 as detailed in Table 3 below:
Compound 18 stock comprises 9.4 mg Compound 18, 0.2 mL DMSO and 0.8 mL saline.
As in Example 1 above, the response latencies of the mice in the respective groups were tested using a hot-plate at t=−60 mins., 0 mins., 60 mins., 120 mins., 180 mins., 240 mins., 300 mins. and 360 mins.

`CN(C)CCCN1c2ccccc2CCc2ccccc21` [Imipramine, imipramine] showed a hot-plate response latency (tested at t=0 mins.) of 13.7 s, a hot-plate response latency (tested at t=60 mins.) of 14.9 s and a hot-plate response latency (tested at t=120 mins.) of 14.6 s. It also gave a hot-plate response latency (tested at t=240 mins.) of 22.9 s and a hot-plate response latency (tested at t=300 mins.) of 23.1 s.
